Measured values from patent US10626109B2, “N-hetaryl(thio)carbonyl-2-(benzocycloalken-1-yl)cyclamines and their use as fungicides” (BAYER CROPSCIENCE AKTIENGESELLSCHAFT, priority 2013, dated 2020).
Marks after values point to notes of the source that are not given here.

Assays:
[1] = system: Sphaerotheca fuliginea; assay: In vivo preventive test on Sphaerotheca fuliginea (powdery mildew on cucurbits); conditions: for Efficacy: Table F1; for protection: in words, at a dose of 500 and 100 ppm of active ingredient, analogue 13 in very similar conditions
Experimental: (§1) [table] […] The young plants of gherkin are treated by spraying the active ingredient prepared as described above. […] After 24 hours, the plants are contaminated by spraying the leaves with an aqueous suspension of Sphaerotheca fuliginea spores. The contaminated gherkin plants are incubated for 72 hours at 18° C. and at 100% relative humidity and then for 12 days at 20° C. and at 70-80% relative humidity. The test is evaluated 15 days after the inoculation. 0% means an efficacy which corresponds to that of the control plants while an efficacy of 100% means that no disease is observed.

[2] = system: Puccinia recondita; assay: In vivo preventive test on Puccinia recondita (brown rust on wheat); conditions: for protection: in words, at a dose of 500 and 100 ppm of active ingredient, analogues 11 and 13 in very similar conditions
Experimental: as §1, with “wheat” for “gherkin”, “Puccinia recondita” for “Sphaerotheca fuliginea”, “24” for “72”, “20°” for “18°”, “10” for “12”, “11” for “15”

[3] = system: Uromyces appendiculatus; assay: In vivo preventive test on Uromyces appendiculatus (bean rust); conditions: for protection: in words, at a dose of 500 and 100 ppm of active ingredient
Experimental: [table] The active ingredients are made soluble and homogenized in a mixture of Dimethyl sulfoxide/Acetone//Tween® 80 and then diluted in water to the desired concentration. The young plants of bean are treated by spraying the active ingredient prepared as described above. Control plants are treated only with an aqueous solution of Acetone/Dimethyl sulfoxide/Tween® 80. After 24 hours, the plants are contaminated by spraying the leaves with an aqueous suspension of Uromyces appendiculatus spores. The contaminated bean plants are incubated for 24 hours at 20° C. and at 100% relative humidity and then for 10 days at 20° C. and at 70-80% relative humidity. The test is evaluated 11 days after the inoculation. 0% means an efficacy which corresponds to that of the control plants while an efficacy of 100% means that no disease is observed.

[4] = log P by HPLC on reversed-phase column (C 18), EEC Directive 79/831 Annex V.A8; type: physicochemical; conditions: Table 1, HPLC, 0.1% aqueous formic acid and acetonitrile, 40° C.
Experimental: In table 1, the log P values were determined in accordance with EEC Directive 79/831 Annex V.A8 by HPLC (High Performance Liquid Chromatography) on a reversed-phase column (C 18), using the method described below: Temperature: 40° C.; Mobile phases: 0.1% aqueous formic acid and acetonitrile; linear gradient from 10% acetonitrile to 90% acetonitrile. Calibration was carried out using unbranched alkan-2-ones (comprising 3 to 16 carbon atoms) with known log P values (determination of the log P values by the retention times using linear interpolation between two successive alkanones). lambda-max-values were determined using UV-spectra from 200 nm to 400 nm and the peak values of the chromatographic signals. In table 2, M+H (Apcl+) and log P are defined as for table 1.

[5] = second value of a mixture of two diastereoisomers
[6] = single value, or first value of a mixture of two diastereoisomers
[7] = Table C2, dose 100 ppm, formulated in DMF with 2% of alkylarylpolyglycolether
[8] = Table C2, dose 500 ppm, formulated in DMF with 2% of alkylarylpolyglycolether

Cn1nc(C(F)F)c(C(=O)N2CCCC2C2CCCc3ccccc32)c1F (mixture of isomers) [I.26]
Efficacy ([1]; dose 100 ppm, gherkin): 100%
Efficacy ([1]; dose 500 ppm, gherkin): 100%
protection ([1]; gherkin): total protection
Efficacy ([2]; Table C2, dose 100 ppm, wheat): 88%
Efficacy ([2]; Table C2, dose 500 ppm, wheat): 98%
protection ([2]; wheat): excellent (at least 90%) to high (at least 80%) protection
Efficacy ([3]; Table G1, dose 100 ppm): 100%
Efficacy ([3]; Table G1, dose 500 ppm): 100%
Efficacy ([3]; Table G2, dose 100 ppm): 100%
Efficacy ([3]; Table G2, dose 500 ppm): 100%
protection [3]: total protection
protection ([3]; listed as 1.26): total to average (at least 50%) protection
logP [4, 5]: 3.61
logP [4, 6]: 3.48

Cn1cc(C(=O)N2CCCC2C2CCCc3ccccc32)c(C(F)F)n1 (mixture of isomers) [I.27]
Efficacy ([3]; Table G2, dose 100 ppm): 56%
Efficacy ([3]; Table G2, dose 500 ppm): 100%
protection [3]: total to average (at least 50%) protection
logP [4, 5]: 3.21
logP [4, 6]: 2.94

Cn1nc(C(F)F)c(C(=O)N(CCc2ccccc2)C2CC2)c1F [11 from WO-2011/151369, N-cyclopropyl-3-(difluoromethyl)-5-fluoro-1-methyl-N-(2-phenylethyl)-1H-pyrazole-4-carboxamide]
Efficacy [2, 7]: 0 ^(a) %
Efficacy [2, 8]: 10 ^(a) %
protection ([2]; wheat): poor (less than 40%) to no protection

CC(CN(C(=O)c1c(C(F)F)nn(C)c1F)C1CC1)c1ccccc1 (centres unmarked) [13 from WO-2011/151369, N-cyclopropyl-3-(difluoromethyl)-5-fluoro-1-methyl-N-(2-phenylpropyl)-1H-pyrazole-4-carboxamide, reference compound]
Efficacy ([1]; dose 100 ppm, formulated in DMF with 2% of alkylarylpolyglycolether): 3 ^(a) %
Efficacy ([1]; dose 500 ppm, formulated in DMF with 2% of alkylarylpolyglycolether): 63 ^(a) %
protection ([1]; gherkin): average (at least 60%) to poor (less than 10%) protection
Efficacy [2, 7]: 10 ^(a) %
Efficacy [2, 8]: 40 ^(a) %
protection ([2]; wheat): poor (less than 40%) to no protection

CCC(c1ccccc1)C1CCCN1C(=O)c1c(C(F)F)nn(C)c1F (centres unmarked) [53 from WO2012/052491, [3-(difluoromethyl)-5-fluoro-1-methyl-1H-pyrazol-4-yl][2-(1-phenylpropyl)pyrrolidin-1-yl]methanone, reference compound]
Efficacy ([3]; Table G1, dose 100 ppm): 0%
Efficacy ([3]; Table G1, dose 500 ppm): 77%
protection [3]: good (at least 70%) to no protection

CCC(c1ccccc1)C1CCCCN1C(=O)c1c(C(F)F)nn(C)c1F (centres unmarked) [136 from WO-2012/052489, [3-(difluoromethyl)-5-fluoro-1-methyl-1H-pyrazol-4-yl][2-(1-phenylpropyl)piperidin-1-yl]methanone]
Efficacy ([2]; Table C1, dose 100 ppm, wheat): 50%
Efficacy ([2]; Table C1, dose 500 ppm, wheat): 65%
protection ([2]; wheat): average protection

Cc1nn(C)c(F)c1C(=O)N(C1CC1)C(C)C1CCCc2ccccc21 (centres unmarked) [I.2 from WO-2010/086311, N-cyclopropyl-5-fluoro-1,3-dimethyl-N-[1-(1,2,3,4-tetrahydronaphthalen-1-yl)ethyl]-1H-pyrazole-4-carboxamide, reference compound]
Efficacy ([3]; Table G2, dose 100 ppm): 0%
Efficacy ([3]; Table G2, dose 500 ppm): 88%
protection [3]: high (at least 80%) to no protection

Cn1nc(C(F)F)c(C(=O)N2CCCCC2C2CCCc3ccccc32)c1F (centres unmarked) [I.31]
Efficacy ([2]; Table C1, dose 100 ppm, wheat): 64%
Efficacy ([2]; Table C1, dose 500 ppm, wheat): 93%
protection ([2]; wheat): excellent (at least 90%) to average (at least 60%) protection
logP [4, 6]: 3.67
